Test results published in US20100210596A1, “USE OF AMINOPYRIMIDINE COMPOUNDS IN THE TREATMENT OF IMMUNE DISORDERS” (priority 2006, published 2010).

Key:
NOD mice [1] = test: Treatment of new onset diabetic NOD mice with Gleevec (remission of diabetes, blood glucose); assay type: in vivo, mouse
Experimental: NOD mice were treated by gavage (oral) daily (M-F) with 50 mg/kg of commercially-available Gleevec suspended in peanut oil. Treatment was initiated at the time of disease onset (blood sugars above 250 mg/dl) and continued for the duration of the experiment.
(§1) Further studies were carried out to determine if Gleevec could be discontinued and maintain its efficacy. New onset mice were treated as above for only 3 weeks after onset and examined for disease recurrence (FIG. 1B). […] of mice (7/8) went into remission during the 3 weeks of therapy. For the majority of mice, remission was short lived as 5/8 mice (FIG. 1B, solid circles) became hyperglycemic within 1-2 weeks after cessation of drug therapy. However, 3/8 mice (FIG. 1B, open circles) remained in remission more than 6 weeks after the last dose of Gleevec. […] Ten week old NOD mice were treated daily with Gleevec ([…]) or peanut oil and followed for disease incidence. None of the Gleevec-treated and 50% of the peanut oil-treated mice were diabetic at 18 weeks of age.
Diabetic NOD mice (250-350 mg/dL) were treated with Gleevec for a short course (3 weeks) or longer courses (8-10 weeks) daily 3 times per week (3×/wk); and blood glucose assessed as described in Example 2. […] The majority of the daily, 8-10 week-treated group remained normal glycemic for >2 months after ending therapy. Peanut oil treatment had no effect in reversing diabetes.
In another dosing regimen, NOD mice were treated with Gleevec (100 mg/kg) by daily oral gavage Monday through Friday for 2 weeks, followed by daily Gleevec (100 mg/kg) via oral gavage three times per week for 6 weeks. Four of 5 mice went into disease remission.

NOD mice [2] = test: Gleevec prevention studies in pre-diabetic NOD mice (diabetes incidence by blood glucose); assay type: in vivo, mouse
Experimental: as §1
Pre-diabetic NOD mice were treated with Gleevec for 7 weeks starting at 12 weeks of age. The Gleevec was emulsified in peanut oil and given by gavage (100 mg/kg) daily. Control animals were treated with peanut oil alone. Mice were tested for diabetes based on blood glucose. Mice with two consecutive glucose readings of greater than 250 mg/dl were considered diabetic.

[3] = system: NOD mice injected with cyclophosphamide (CY); test: Cyclophosphamide model: diabetes incidence in CY-injected NOD mice; assay type: in vivo; settings: 14.5 week-old NOD mice, CY 300 mg/kg i.p., Gleevec 1.5 mg/mouse/day oral for 7 weeks; FIG. 3
Experimental: 14.5 week-old NOD mice were injected intraperitoneally (i.p.) with cyclophosphamide (CY) (300 mg/kg) in conjunction with daily oral Gleevec therapy or control peanut oil. Gleevec treatment (1.5 mg/mouse/day) lasted 7 weeks. Mice were tested for diabetes based on blood glucose. Mice with two consecutive glucose readings of greater than 250 mg/dl were considered diabetic.

[4] = 100 mg/kg oral gavage daily Monday-Friday for 2 weeks, then 100 mg/kg three times per week for 6 weeks
[5] = new onset mice, 50 mg/kg oral daily for only 3 weeks after onset, FIG. 1B

Q: `CS(=O)(=O)O.Cc1ccc(NC(=O)c2ccc(CN3CCN(C)CC3)cc2)cc1Nc1nccc(-c2cccnc2)n1` [Gleevec] was tested. Which “mice going into remission” value (NOD mice [1]; 50 mg/kg oral gavage daily (M-F) in peanut oil, started at disease onset (blood sugars above 250 mg/dl), continued for duration of experiment, FIG. 1A) did it give?
A: All of the treated mice went into remission

Q: And the “relapse during the course of the study” value (NOD mice [1]; 50 mg/kg oral gavage daily (M-F), continuous treatment from onset, FIG. 1A)?
A: none relapsed

Q: What about the “mice that maintained normoglycemia for the duration of the experiment (>30 weeks after onset)” value (NOD mice [1]; [4]) of the same compound?
A: Three of the 5

Q: And the “mice that went into disease remission (number of total)” value (NOD mice [1]; [4])?
A: Four of 5

Q: What about the “mice that remained in remission more than 6 weeks after the last dose (number/total)” value (NOD mice [1]; 3-week treatment, FIG. 1B open circles) of the same compound?
A: 3/8

Q: And the “mice that became hyperglycemic within 1-2 weeks after cessation of drug therapy (number/total)” value (NOD mice [1]; 3-week treatment, FIG. 1B solid circles)?
A: 5/8

Q: What about the “blood glucose levels maintained in treated mice” value (NOD mice [1]; NOD mice treated with Gleevec after onset) of the same compound?
A: approximately 200 mg/dl

Q: What about the “time the majority of the group remained normal glycemic after ending therapy” value (NOD mice [1]; daily, 8-10 week-treated group) of the same compound?
A: > 2 months

Q: And the reversal of diabetes (NOD mice [1]; diabetic NOD mice (250-350 mg/dL), all treatments: 3 weeks or 8-10 weeks, daily or 3x/wk)?
A: effective in reversing diabetes in the majority of mice

Q: And the “mice that went into remission during the 3 weeks of therapy (number/total)” value (NOD mice [1]; [5])?
A: 7/8

Q: What about the “percent of mice that went into remission during the 3 weeks of therapy” value (NOD mice [1]; [5]) of the same compound?
A: Greater than 90%

Q: And the “long term maintenance (>20 week) of normoglycemia” value (NOD mice [1]; short course 3 weeks versus long course 8-10 weeks)?
A: less evident in short term 3 week treatment) than long term 8-10 week treated mice

Q: What about the “percent of mice in which diabetes was prevented” value (NOD mice [2]; pre-diabetic NOD mice, 100 mg/kg gavage daily for 7 weeks starting at 12 weeks of age, diabetic = two consecutive glucose readings >250 mg/dl, FIG. 2) of the same compound?
A: 90%

Q: What about the “mice diabetic at 18 weeks of age” value (NOD mice [2]; ten week old NOD mice treated daily (50 mg/ml as printed), preliminary experiments) of the same compound?
A: None

Q: And the “incidence of diabetes versus peanut oil-treated CY-treated control” value [3]?
A: significantly reduced
